Measured values reported in patent publication US20260193264A1, “BENZOYPARAZINE PYRAZINES AND THEIR USES” (FOGHORN THERAPEUTICS INC., priority 2022, published 2026).

Tests used:
[1] = biological target: T1, HiBit-BRG1 fusion protein in stable HeLa cell line expressing HiBit-BRG1 and LgBit (Homo sapiens, UniProt P51532); assay: HiBiT-BRG1 cell-based degradation assay (Nano-Glo HiBiT, 24 h); conditions: HeLa HiBit-BRG1/LgBit cells; for DC50: read-out: BRMG1 HiBit Degradation IC50; for Dmax: top dose 30 μM, read-out: BRG1 HiBit Degradation Maximum (%)
T1 construct: expressed in transfected cells
T1 sequence (P51532 whole entry, the tested form may be a part): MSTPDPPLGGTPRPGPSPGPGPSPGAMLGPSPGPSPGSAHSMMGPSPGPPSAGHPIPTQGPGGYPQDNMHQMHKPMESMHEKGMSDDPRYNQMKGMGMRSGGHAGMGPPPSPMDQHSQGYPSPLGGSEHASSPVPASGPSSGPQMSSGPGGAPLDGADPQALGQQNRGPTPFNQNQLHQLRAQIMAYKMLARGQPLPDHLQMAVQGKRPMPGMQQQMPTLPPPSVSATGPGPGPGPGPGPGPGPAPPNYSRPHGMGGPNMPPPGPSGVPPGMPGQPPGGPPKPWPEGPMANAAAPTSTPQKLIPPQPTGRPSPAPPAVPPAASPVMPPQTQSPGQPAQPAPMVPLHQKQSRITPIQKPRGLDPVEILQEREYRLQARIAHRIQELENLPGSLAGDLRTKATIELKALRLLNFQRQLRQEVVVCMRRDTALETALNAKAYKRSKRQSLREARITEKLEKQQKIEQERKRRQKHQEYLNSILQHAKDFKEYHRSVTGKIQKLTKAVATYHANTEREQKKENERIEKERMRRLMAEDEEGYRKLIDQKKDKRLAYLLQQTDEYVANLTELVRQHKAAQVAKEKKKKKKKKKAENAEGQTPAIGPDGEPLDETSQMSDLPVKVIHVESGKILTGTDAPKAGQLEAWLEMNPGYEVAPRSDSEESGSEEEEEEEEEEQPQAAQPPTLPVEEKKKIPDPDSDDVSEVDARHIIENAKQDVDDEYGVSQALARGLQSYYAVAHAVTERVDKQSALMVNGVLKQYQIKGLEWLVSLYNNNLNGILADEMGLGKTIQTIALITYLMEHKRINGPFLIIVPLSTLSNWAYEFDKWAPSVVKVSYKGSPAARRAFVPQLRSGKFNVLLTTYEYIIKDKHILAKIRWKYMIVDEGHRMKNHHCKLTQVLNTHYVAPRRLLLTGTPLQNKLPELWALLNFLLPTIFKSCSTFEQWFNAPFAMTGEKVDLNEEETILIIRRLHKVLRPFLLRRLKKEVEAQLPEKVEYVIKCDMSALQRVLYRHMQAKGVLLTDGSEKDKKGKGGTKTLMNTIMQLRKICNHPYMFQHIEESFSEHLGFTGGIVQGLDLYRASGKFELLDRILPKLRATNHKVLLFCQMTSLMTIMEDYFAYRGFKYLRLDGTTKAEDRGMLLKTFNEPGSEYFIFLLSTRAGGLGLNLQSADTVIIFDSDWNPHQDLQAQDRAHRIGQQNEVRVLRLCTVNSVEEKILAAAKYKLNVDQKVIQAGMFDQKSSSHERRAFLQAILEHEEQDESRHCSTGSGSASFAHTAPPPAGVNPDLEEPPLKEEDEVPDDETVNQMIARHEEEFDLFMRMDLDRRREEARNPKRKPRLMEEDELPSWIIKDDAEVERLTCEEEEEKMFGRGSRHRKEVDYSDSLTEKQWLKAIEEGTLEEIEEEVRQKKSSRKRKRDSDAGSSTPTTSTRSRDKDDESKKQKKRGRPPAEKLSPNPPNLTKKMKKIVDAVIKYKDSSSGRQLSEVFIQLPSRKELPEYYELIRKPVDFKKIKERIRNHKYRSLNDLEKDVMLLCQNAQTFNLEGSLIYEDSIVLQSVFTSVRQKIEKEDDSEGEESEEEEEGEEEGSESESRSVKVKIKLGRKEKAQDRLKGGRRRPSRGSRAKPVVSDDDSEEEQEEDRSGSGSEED
Summary of the method: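 Degradation calculated from NanoBiT luminescence relative to DMSO-treated cells (high) and cells given 2 μM known BRM/BRG1 degrader (low). HeLa cells stably expressing HiBiT-BRG1 plus LgBiT were exposed to compound for 24 h before lytic HiBiT detection.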

[2] = biological target: T2, HiBiT-BRM fusion protein in stable HeLa cell line (Homo sapiens, UniProt P51531); assay: HiBiT-BRM cell-based degradation assay (Nano-Glo HiBiT Lytic Detection, 24 h); parameters: DC50: scale not given here; conditions: HeLa HiBiT-BRM cells; for DC50: read-out: BRM HiBit Degradation IC50; for BRM HiBit Degradation Maximum (%): top dose 30 μM
T2 construct: expressed in transfected cells
T2 sequence (P51531 whole entry, the tested form may be a part): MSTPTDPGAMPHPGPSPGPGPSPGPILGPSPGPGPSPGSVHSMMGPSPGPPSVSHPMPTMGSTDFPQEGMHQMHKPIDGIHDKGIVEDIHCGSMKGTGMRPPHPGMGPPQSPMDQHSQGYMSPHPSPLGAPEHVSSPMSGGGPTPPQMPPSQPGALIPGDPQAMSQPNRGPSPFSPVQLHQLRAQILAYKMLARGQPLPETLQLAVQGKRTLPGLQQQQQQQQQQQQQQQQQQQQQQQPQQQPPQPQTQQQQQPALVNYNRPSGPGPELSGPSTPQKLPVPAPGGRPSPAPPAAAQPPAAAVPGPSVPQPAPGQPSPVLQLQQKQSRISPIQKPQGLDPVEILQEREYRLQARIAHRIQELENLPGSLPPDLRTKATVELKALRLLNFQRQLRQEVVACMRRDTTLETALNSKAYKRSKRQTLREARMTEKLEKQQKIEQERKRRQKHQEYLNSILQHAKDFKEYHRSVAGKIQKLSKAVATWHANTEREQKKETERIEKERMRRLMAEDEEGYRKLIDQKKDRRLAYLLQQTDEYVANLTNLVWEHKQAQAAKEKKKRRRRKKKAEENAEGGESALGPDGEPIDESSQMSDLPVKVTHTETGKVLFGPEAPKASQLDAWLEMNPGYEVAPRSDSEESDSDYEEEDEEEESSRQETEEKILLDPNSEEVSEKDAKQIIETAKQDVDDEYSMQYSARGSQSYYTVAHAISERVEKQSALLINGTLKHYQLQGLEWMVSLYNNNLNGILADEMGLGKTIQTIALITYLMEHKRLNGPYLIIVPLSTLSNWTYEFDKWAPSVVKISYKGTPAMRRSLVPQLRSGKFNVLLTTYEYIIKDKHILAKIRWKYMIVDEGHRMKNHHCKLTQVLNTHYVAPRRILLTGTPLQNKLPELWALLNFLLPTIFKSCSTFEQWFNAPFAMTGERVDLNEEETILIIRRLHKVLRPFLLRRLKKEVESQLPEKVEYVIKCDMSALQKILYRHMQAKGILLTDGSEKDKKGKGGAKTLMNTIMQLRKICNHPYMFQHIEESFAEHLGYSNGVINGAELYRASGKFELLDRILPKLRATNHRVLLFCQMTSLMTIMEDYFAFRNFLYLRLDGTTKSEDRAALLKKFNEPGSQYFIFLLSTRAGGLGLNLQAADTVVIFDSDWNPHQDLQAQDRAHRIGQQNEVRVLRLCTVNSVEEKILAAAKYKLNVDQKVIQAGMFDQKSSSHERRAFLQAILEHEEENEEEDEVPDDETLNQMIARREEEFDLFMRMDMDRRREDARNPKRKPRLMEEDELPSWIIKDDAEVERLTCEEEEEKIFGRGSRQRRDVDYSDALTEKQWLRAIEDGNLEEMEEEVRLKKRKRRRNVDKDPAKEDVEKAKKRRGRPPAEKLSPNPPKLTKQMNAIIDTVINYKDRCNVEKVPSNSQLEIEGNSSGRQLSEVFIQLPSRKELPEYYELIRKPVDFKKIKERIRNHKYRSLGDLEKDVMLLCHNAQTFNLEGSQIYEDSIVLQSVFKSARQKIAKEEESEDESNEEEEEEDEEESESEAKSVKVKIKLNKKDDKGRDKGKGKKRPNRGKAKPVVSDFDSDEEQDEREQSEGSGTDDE
Summary of the method: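 Percent degradation was scaled between DMSO-treated cells and cells given 2 μM of a known BRM/BRG1 degrader. Readout was NanoBiT luminescence after lytic detection. HeLa cells stably expressing HiBiT-BRM were dosed for 24 h, 10 points, 3-fold steps from 30 μM final, in duplicate.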

`Cc1ncsc1-c1ccc([C@H](C)NC(=O)[C@@H]2C[C@@H](O)CN2C(=O)[C@@H](c2cc(N3CCN4CCN(c5ccc6cc(-c7ccccc7O)nnc6c5)CC4C3)no2)C(C)C)cc1` (stereo partly drawn) [Compound 155, (2S,4R)-4-hydroxy-1-((2R)-2-(3-(8-(3-(2-hydroxyphenyl)cinnolin-7-yl)octahydro-2H-pyrazino[1,2-a]pyrazin-2-yl)isoxazol-5-yl)-3-methylbutanoyl)-N-((S)-1-(4-(4-methylthiazol-5-yl)phenyl)ethyl)pyrrolidine-2-carboxamide] gave a DC50 [1] of less than 10 nM, a Dmax [1] greater than 75% and a DC50 [2] of less than 10 nM. The “BRM HiBit Degradation Maximum (%)” value [2] was “A (“A” indicates maximum degradation ≥75%)”.
With `Cc1ncsc1-c1ccc([C@H](C)NC(=O)[C@@H]2C[C@@H](O)CN2C(=O)[C@@H](c2cc(N3CCC(Oc4ccc5cc(-c6ccccc6O)nnc5c4)CC3)no2)C(C)C)cc1` [Compound 183, (2S,4R)-4-hydroxy-1-((R)-2-(3-(4-((3-(2-hydroxyphenyl)cinnolin-7-yl)oxy)piperidin-1-yl)isoxazol-5-yl)-3-methylbutanoyl)-N-((S)-1-(4-(4-methylthiazol-5-yl)phenyl)ethyl)pyrrolidine-2-carboxamide] the DC50 [1] was greater than 10 nM, the Dmax [1] was greater than 50% and the DC50 [2] was less than 10 nM. For the same molecule, the “BRM HiBit Degradation Maximum (%)” value [2] was “A (“A” indicates maximum degradation ≥75%)”.
For `Cc1ncsc1-c1ccc([C@H](C)NC(=O)[C@@H]2C[C@@H](O)CN2C(=O)[C@@H](c2cc(N3CCC4(CCN(c5ccc6nnc(-c7ccccc7O)cc6c5)C4)C3)no2)C(C)C)cc1` (stereo partly drawn) [Compound 98, (2S,4R)-4-hydroxy-1-((2R)-2-(3-(7-(3-(2-hydroxyphenyl)cinnolin-6-yl)-2,7-diazaspiro[4.4]nonan-2-yl)isoxazol-5-yl)-3-methylbutanoyl)-N-((S)-1-(4-(4-methylthiazol-5-yl)phenyl)ethyl)pyrrolidine-2-carboxamide], the DC50 [1] was greater than 10 nM, the Dmax [1] was greater than 75% and the DC50 [2] was less than 10 nM. For the same molecule, the “BRM HiBit Degradation Maximum (%)” value [2] was “A (“A” indicates maximum degradation ≥75%)”.
In the case of `CC(C)[C@@H](C(=O)N1C[C@H](O)C[C@H]1C(=O)N[C@@H](C)c1ccccc1)c1cc(N2CC3(CN(c4ccc5cc(-c6ccccc6O)nnc5c4)C3)C2)no1` [Compound 85, (2S,4R)-4-hydroxy-1-((R)-2-(3-(6-(3-(2-hydroxyphenyl)cinnolin-7-yl)-2,6-diazaspiro[3.3]heptan-2-yl)isoxazol-5-yl)-3-methylbutanoyl)-N-((S)-1-phenylethyl)pyrrolidine-2-carboxamide], the Dmax [1] is reported as less than 50%, the DC50 [2] is reported as less than 10 nM and the “BRM HiBit Degradation Maximum (%)” value [2] is reported as “A (“A” indicates maximum degradation ≥75%)”.
Molecule `Cc1ncsc1-c1ccc([C@H](C)NC(=O)[C@@H]2C[C@@H](O)CN2C(=O)C(C(C)C)n2cc(N3CCCC4(CCN(c5ccc6cc(-c7ccccc7O)nnc6c5)CC4)C3)nn2)cc1` (stereo partly drawn) [Compound 251, (2S,4R)-4-hydroxy-1-(2-(4-(9-(3-(2-hydroxyphenyl)cinnolin-7-yl)-2,9-diazaspiro[5.5]undecan-2-yl)-1H-1,2,3-triazol-1-yl)-3-methylbutanoyl)-N-((S)-1-(4-(4-methylthiazol-5-yl)phenyl)ethyl)pyrrolidine-2-carboxamide] has a DC50 [1] of less than 10 nM, a Dmax [1] greater than 75% and a DC50 [2] of less than 10 nM. The “BRM HiBit Degradation Maximum (%)” value [2] was “A (“A” indicates maximum degradation ≥75%)”.
`Cc1ncsc1-c1ccc([C@H](C)NC(=O)[C@@H]2C[C@@H](O)CN2C(=O)[C@H](C(C)C)n2cc(N3CC4(CN(c5ccc6cc(-c7ccccc7O)nnc6c5)C4)C3)nn2)cc1` [Compound 169, (2S,4R)-4-hydroxy-1-((S)-2-(4-(6-(3-(2-hydroxyphenyl)cinnolin-7-yl)-2,6-diazaspiro[3.3]heptan-2-yl)-1H-1,2,3-triazol-1-yl)-3-methylbutanoyl)-N-((S)-1-(4-(4-methylthiazol-5-yl)phenyl)ethyl)pyrrolidine-2-carboxamide] gave a DC50 [1] of less than 10 nM, a Dmax [1] greater than 50% and a DC50 [2] of less than 10 nM. For the same molecule, the “BRM HiBit Degradation Maximum (%)” value [2] was “A (“A” indicates maximum degradation ≥75%)”.
Work on `Cc1ncsc1-c1ccc([C@H](C)NC(=O)[C@@H]2C[C@@H](O)CN2C(=O)[C@@H](c2cc(N3CCC(Oc4ccc5nnc(-c6ccccc6O)cc5c4)CC3)no2)C(C)C)cc1` [Compound 182, (2S,4R)-4-hydroxy-1-((R)-2-(3-(4-((3-(2-hydroxyphenyl)cinnolin-6-yl)oxy)piperidin-1-yl)isoxazol-5-yl)-3-methylbutanoyl)-N-((S)-1-(4-(4-methylthiazol-5-yl)phenyl)ethyl)pyrrolidine-2-carboxamide] yielded a DC50 [1] greater than 10 nM, a Dmax [1] greater than 75% and a DC50 [2] of less than 10 nM. The “BRM HiBit Degradation Maximum (%)” value [2] was “A (“A” indicates maximum degradation ≥75%)”.
In the case of `Cc1ncsc1-c1ccc([C@H](C)NC(=O)[C@@H]2C[C@@H](O)CN2C(=O)C(C(C)C)n2cc(N3C[C@H]4CN(c5ccc6cc(-c7ccccc7O)nnc6c5)C[C@H]4C3)nn2)cc1` (stereo partly drawn) [Compound 213, (2S,4R)-4-hydroxy-1-(2-(4-((3aR,6aS)-5-(3-(2-hydroxyphenyl)cinnolin-7-yl)hexahydropyrrolo[3,4-c]pyrrol-2(1H)-yl)-1H-1,2,3-triazol-1-yl)-3-methylbutanoyl)-N-((S)-1-(4-(4-methylthiazol-5-yl)phenyl)ethyl)pyrrolidine-2-carboxamide], the Dmax [1] is reported as less than 50%, the DC50 [2] is reported as less than 10 nM and the “BRM HiBit Degradation Maximum (%)” value [2] is reported as “A (“A” indicates maximum degradation ≥75%)”.
In the case of `CNC(=O)[C@@H]1C[C@@H](O)CN1C(=O)C(c1cc(N2CC3(CN(c4ccc5cc(-c6ccccc6O)nnc5c4)C3)C2)no1)C(C)C` (stereo partly drawn) [Compound 114, (2S,4R)-4-hydroxy-1-(2-(3-(6-(3-(2-hydroxyphenyl)cinnolin-7-yl)-2,6-diazaspiro[3.3]heptan-2-yl)isoxazol-5-yl)-3-methylbutanoyl)-N-methylpyrrolidine-2-carboxamide], the Dmax [1] is reported as less than 50%, the DC50 [2] is reported as less than 10 nM and the “BRM HiBit Degradation Maximum (%)” value [2] is reported as “A (“A” indicates maximum degradation ≥75%)”.
`Cc1ncsc1-c1ccc([C@H](C)NC(=O)[C@@H]2C[C@@H](O)CN2C(=O)[C@@H](c2cc(N3CCC4(CCC(c5ccc6cc(-c7ccccc7O)nnc6c5)CC4)CC3)no2)C(C)C)cc1` [Compound 96, (2S,4R)-4-hydroxy-1-((R)-2-(3-(9-(3-(2-hydroxyphenyl)cinnolin-7-yl)-3-azaspiro[5.5]undecan-3-yl)isoxazol-5-yl)-3-methylbutanoyl)-N-((S)-1-(4-(4-methylthiazol-5-yl)phenyl)ethyl)pyrrolidine-2-carboxamide] was tested, and the DC50 [1] was greater than 10 nM, the Dmax [1] was greater than 75% and the DC50 [2] was less than 10 nM. For the same molecule, the “BRM HiBit Degradation Maximum (%)” value [2] was “A (“A” indicates maximum degradation ≥75%)”.
Molecule `Cc1ncsc1-c1ccc([C@H](C)NC(=O)[C@@H]2C[C@@H](O)CN2C(=O)[C@@H](c2cc(N3CC4(CCC(c5ccc6nnc(-c7ccccc7O)cc6c5)CC4)C3)no2)C(C)C)cc1` [Compound 62, (2S,4R)-4-hydroxy-1-((R)-2-(3-(7-(3-(2-hydroxyphenyl)cinnolin-6-yl)-2-azaspiro[3.5]nonan-2-yl)isoxazol-5-yl)-3-methylbutanoyl)-N-((S)-1-(4-(4-methylthiazol-5-yl)phenyl)ethyl)pyrrolidine-2-carboxamide] has a DC50 [1] greater than 10 nM, a Dmax [1] greater than 75% and a DC50 [2] of less than 10 nM. The “BRM HiBit Degradation Maximum (%)” value [2] was “A (“A” indicates maximum degradation ≥75%)”.
For `Cc1ncsc1-c1ccc([C@H](C)NC(=O)[C@@H]2C[C@@H](O)CN2C(=O)[C@@H](c2cc(-c3cnc(N4CC(c5cc(F)c6cc(-c7ccccc7O)nnc6c5)C4)nc3)no2)C(C)C)cc1` [Compound 28], the Dmax [1] was less than 50%, the DC50 [2] was greater than 10 nM and the “BRM HiBit Degradation Maximum (%)” value [2] was “A (“A” indicates maximum degradation ≥75%)”.
For `Cc1nc(N2CCC(c3ccc4cc(-c5ccccc5O)nnc4c3)CC2)ccc1-c1cc([C@H](C(=O)N2C[C@H](O)C[C@H]2C(=O)N[C@@H](C)c2ccc(-c3scnc3C)cc2)C(C)C)on1` [Compound 80, (2S,4R)-4-hydroxy-1-((R)-2-(3-(6-(4-(3-(2-hydroxyphenyl)cinnolin-7-yl)piperidin-1-yl)-2-methylpyridin-3-yl)isoxazol-5-yl)-3-methylbutanoyl)-N-((S)-1-(4-(4-methylthiazol-5-yl)phenyl)ethyl)pyrrolidine-2-carboxamide], the DC50 [1] was greater than 10 nM, the Dmax [1] was greater than 75% and the DC50 [2] was less than 10 nM. For the same molecule, the “BRM HiBit Degradation Maximum (%)” value [2] was “A (“A” indicates maximum degradation ≥75%)”.
Work on `Cc1ncsc1-c1ccc([C@H](C)NC(=O)[C@@H]2C[C@@H](O)CN2C(=O)[C@@H](c2cc(N3CCC(N4CC5(CN(Cc6ccc7nnc(-c8ccccc8O)cc7c6)C5)C4)CC3)no2)C(C)C)cc1` [Compound 256, (2S,4R)-4-hydroxy-1-((R)-2-(3-(4-(6-((3-(2-hydroxyphenyl)cinnolin-6-yl)methyl)-2,6-diazaspiro [3.3]heptan-2-yl)piperidin-1-yl)isoxazol-5-yl)-3-methylbutanoyl)-N-((S)-1-(4-(4-methylthiazol-5-yl)phenyl)ethyl)pyrrolidine-2-carboxamide] yielded a DC50 [1] greater than 10 nM, a Dmax [1] greater than 75% and a DC50 [2] greater than 100 nM. For the same molecule, the “BRM HiBit Degradation Maximum (%)” value [2] was “B (“B” indicates maximum degradation ≥50%)”.
In the case of `Cc1ncsc1-c1ccc([C@H](C)NC(=O)[C@@H]2C[C@@H](O)CN2C(=O)[C@@H](c2cc(-c3ccc4nnc(-c5cccc(F)c5O)cc4c3)no2)C(C)C)cc1` [Compound 143, (2S,4R)-1-((R)-2-(3-(3-(3-fluoro-2-hydroxyphenyl)cinnolin-6-yl)isoxazol-5-yl)-3-methylbutanoyl)-4-hydroxy-N-((S)-1-(4-(4-methylthiazol-5-yl)phenyl)ethyl)pyrrolidine-2-carboxamide], the Dmax [1] is reported as less than 50%, the DC50 [2] is reported as less than 10 nM and the “BRM HiBit Degradation Maximum (%)” value [2] is reported as “A (“A” indicates maximum degradation ≥75%)”.
